ChEMBL document CHEMBL4261580, “Novel antitumor compound optimized from natural saponin Albiziabioside A induced caspase-dependent apoptosis and ferroptosis as a p53 activator through the mitochondrial pathway” (Eur J Med Chem, 2018)
The source made the active and inactive calls. No cut-off for these calls is given here.

Experiments:
L02 = assay: Antiproliferative activity against human LO2 cells after 72 hrs by MTT assay; type: cell-based; details: L02, 72 h
HepG2 = assay: Antiproliferative activity against human HepG2 cells after 72 hrs by MTT assay; type: functional, cell-based; details: HepG2, 72 h
BEAS-2B = assay: Antiproliferative activity against human BEAS2B cells after 72 hrs by MTT assay; type: functional, cell-based
MCF7 = assay: Antiproliferative activity against human MCF7 cells after 72 hrs by MTT assay; type: functional, cell-based; details: MCF7, 72 h
HCT-116 [1] = assay: Antiproliferative activity against human HCT116 cells after 72 hrs by MTT assay; type: functional, cell-based; details: HCT-116, 72 h
MGC-803 = assay: Antiproliferative activity against human MGC803 cells after 72 hrs by MTT assay; type: functional, cell-based; details: MGC-803, 72 h
[2] = Antiproliferative activity against human HBMEC cells after 72 hrs by MTT assay; type: cell-based
[3] = Antiproliferative activity against human CCD-841 cells after 72 hrs by MTT assay; type: cell-based; details: CCD-841, 72 h
A549 = assay: Antiproliferative activity against human A549 cells after 72 hrs by MTT assay; type: functional, cell-based; details: A549, 72 h
HaCaT = assay: Antiproliferative activity against human HaCaT cells after 72 hrs by MTT assay; type: cell-based
HCT-116 [4] = assay: Antitumor activity against human HCT116 cells xenografted in BALB/c nude mouse assessed as decrease in tumor weight at 20 mg/kg, iv administered once per day for 14 days and measured every 2 days; type: functional
HCT-116 [5] = assay: Antitumor activity against human HCT116 cells xenografted in BALB/c nude mouse assessed as decrease in tumor size at 20 mg/kg, iv administered once per day for 14 days and measured every 2 days; type: functional

Compound | IC50 (HepG2) [µM] | IC50 (MCF7) [µM] | IC50 (HCT-116 [1]) [µM] | IC50 (MGC-803) [µM] | IC50 (A549) [µM] | IC50 (L02) [µM] | IC50 (BEAS-2B) [µM] | IC50 [2] [µM] | IC50 [3] [µM] | IC50 (HaCaT) [µM] | Activity (HCT-116 [4]) | Activity (HCT-116 [5])
CCOc1ccc(-n2cc(COC(=O)[C@]34CCC(C)(C)C[C@H]3C3=CC[C@@H]5[C@@]6(C)CC[C@H](O[C@@H]7O[C@H](CO[C@@H]8OC[C@H](O)[C@H](O)[C@@H]8O)[C@@H](O)[C@H](O)[C@H]7NC(C)=O)C(C)(C)[C@@H]6CC[C@@]5(C)[C@]3(C)CC4)nn2)cc1 | 13.6 | 24.5 | 16.6 | 21.3 | 19.7 | – | – | – | – | – | – | –
CC(=O)N[C@H]1[C@H](O[C@H]2CC[C@]3(C)[C@H]4CC=C5[C@@H]6CC(C)(C)CC[C@]6(C(=O)OCc6cn(-c7ccccc7OC(F)(F)F)nn6)CC[C@@]5(C)[C@]4(C)CC[C@H]3C2(C)C)O[C@H](CO[C@@H]2OC[C@H](O)[C@H](O)[C@@H]2O)[C@@H](O)[C@@H]1O | 31.6 | 32 | 37.9 | 36.9 | 15 | – | – | – | – | – | – | –
CC(=O)N[C@H]1[C@H](O[C@H]2CC[C@]3(C)[C@H]4CC=C5[C@@H]6CC(C)(C)CC[C@]6(C(=O)OCc6cn(-c7cccc([N+](=O)[O-])c7)nn6)CC[C@@]5(C)[C@]4(C)CC[C@H]3C2(C)C)O[C@H](CO[C@@H]2OC[C@H](O)[C@H](O)[C@@H]2O)[C@@H](O)[C@@H]1O | 33.3 | 25.8 | 27.1 | 37.8 | 37.2 | – | – | – | – | – | – | –
CC(=O)N[C@H]1[C@H](O[C@H]2CC[C@]3(C)[C@H]4CC=C5[C@@H]6CC(C)(C)CC[C@]6(C(=O)OCc6cn(-c7cccc(F)c7)nn6)CC[C@@]5(C)[C@]4(C)CC[C@H]3C2(C)C)O[C@H](CO[C@@H]2OC[C@H](O)[C@H](O)[C@@H]2O)[C@@H](O)[C@@H]1O | 18.2 | 34.3 | 11.1 | 18.4 | 19.6 | – | – | – | – | – | – | –

Stronger by IC50 (HepG2), values ahead:

IC50 (HepG2) [µM] | IC50 (MCF7) [µM] | IC50 (HCT-116 [1]) [µM] | IC50 (MGC-803) [µM] | IC50 (A549) [µM] | Compound | IC50 (L02) [µM] | IC50 (BEAS-2B) [µM] | IC50 [2] [µM] | IC50 [3] [µM] | IC50 (HaCaT) [µM] | Activity (HCT-116 [4]) | Activity (HCT-116 [5])
5.39 | 10.8 | 12.2 | 10.1 | 9.08 | CC(=O)N[C@H]1[C@H](O[C@H]2CC[C@]3(C)[C@H]4CC=C5[C@@H]6CC(C)(C)CC[C@]6(C(=O)OCc6cn(-c7cccc(I)c7)nn6)CC[C@@]5(C)[C@]4(C)CC[C@H]3C2(C)C)O[C@H](CO[C@@H]2OC[C@H](O)[C@H](O)[C@@H]2O)[C@@H](O)[C@@H]1O | 27.4 | 14.6 | 18.7 | 36.5 | 29.5 | – | –
5.51 | 15 | 9.93 | 7.7 | 10.2 | CC(=O)N[C@H]1[C@H](O[C@H]2CC[C@]3(C)[C@H]4CC=C5[C@@H]6CC(C)(C)CC[C@]6(C(=O)OCc6cn(-c7cccc(Br)c7)nn6)CC[C@@]5(C)[C@]4(C)CC[C@H]3C2(C)C)O[C@H](CO[C@@H]2OC[C@H](O)[C@H](O)[C@@H]2O)[C@@H](O)[C@@H]1O | 35.4 | 11.3 | 20.4 | 18.2 | 39.3 | – | –
11.5 | 14.8 | 12.8 | 17.1 | 14 | CC(=O)N[C@H]1[C@H](O[C@H]2CC[C@]3(C)[C@H]4CC=C5[C@@H]6CC(C)(C)CC[C@]6(C(=O)OCc6cn(-c7ccc(C(C)=O)cc7)nn6)CC[C@@]5(C)[C@]4(C)CC[C@H]3C2(C)C)O[C@H](CO[C@@H]2OC[C@H](O)[C@H](O)[C@@H]2O)[C@@H](O)[C@@H]1O | – | – | – | – | – | – | –
12.6 | 26.2 | 22.9 | 12.4 | 12.5 | CC(=O)N[C@H]1[C@H](O[C@H]2CC[C@]3(C)[C@H]4CC=C5[C@@H]6CC(C)(C)CC[C@]6(C(=O)OCc6cn(-c7ccc(Br)cc7)nn6)CC[C@@]5(C)[C@]4(C)CC[C@H]3C2(C)C)O[C@H](CO[C@@H]2OC[C@H](O)[C@H](O)[C@@H]2O)[C@@H](O)[C@@H]1O | – | – | – | – | – | – | –
11.4 | 21.9 | 16 | 20.8 | 17.6 | CC(=O)N[C@H]1[C@H](O[C@H]2CC[C@]3(C)[C@H]4CC=C5[C@@H]6CC(C)(C)CC[C@]6(C(=O)O)CC[C@@]5(C)[C@]4(C)CC[C@H]3C2(C)C)O[C@H](CO[C@@H]2OC[C@H](O)[C@H](O)[C@@H]2O)[C@@H](O)[C@@H]1O | – | – | – | – | – | Active | Active
